Patent US11547681B2, “N-acylethanolamide derivatives and uses thereof” (ELIEM THERAPEUTICS, INC., priority 2016, dated 2023)
Like-named read-outs stand apart in the source and are kept apart here.

Assays:
[1] = Simulated intestinal fluid stability, SIF containing pancreatin; assay type: in vitro ADME; details: for % Remaining of Initial (n = 1): 1 μM (Example 14); for Measured Concentration of Drug: test article dosed at 1 μM (Example 14)
Protocol: (§1) Studies were carried out in simulated intestinal fluid containing pancreatin. Simulated intestinal fluid was prepared by dissolving 6.8 g of monobasic potassium phosphate in 1.0 L of water. Pancreatin was then added to the solution and the pH was adjusted to 6.8. A DMSO stock was first prepared for the test articles. Aliquots of the DMSO solution were dosed into 300 μL of matrix, which had been pre-warmed to 37° C., at a final test article concentration of 1 μM. An individual tube was dosed for each time point. At each time point (0, 15, 30, 60, and 120 minutes), 900 μL of ice-cold acetonitrile containing 1.0% formic acid was added to an individual tube. Starting time for each tube was staggered such that all timepoints would finish at the same time. After the conclusion of the experiment, tubes were mixed and then centrifuged at 3,000 rpm for 10 minutes. Calibration standards were prepared in matched matrix. […] Analytical conditions are outlined in Appendix 11-1.
as §1, with “prepared for test articles.” for “prepared for the test articles.”, “Aliquots of DMSO solution” for “Aliquots of the DMSO solution”, “individual tube. The starting time for” for “individual tube. Starting time for”, “that all time points would finish” for “that all timepoints would finish”, “in Appendix 14-1.” for “in Appendix 11-1.”

[2] = Summary of half life data (Table A), matrix not stated; assay type: in vitro ADME
[3] = male, Sprague-Dawley, rat, in vivo, po
[4] = Simulated intestinal fluid (SIF) stability in the presence of various enzymes; assay type: in vitro ADME; details: for % Remaining of Initial: 1 μM, n = 1
Protocol: (§2) Studies were carried out in simulated intestinal fluid in the presence of various enzymes. Simulated intestinal fluid was prepared by dissolving 6.8 g of monobasic potassium phosphate in 1.0 L of water. Aliquots of this solution were taken and the pH was adjusted to 6.8. Individual enzymes were then spiked into aliquots for each experiment. A DMSO stock was first prepared for the test article. Aliquots of the DMSO solution were dosed into 700 μL of matrix, which had been pre-warmed to 37° C., at a final test article concentration of 1 μM. […] Samples were stored at 4° C. until the end of the experiment. After the final time point was sampled, the plate was mixed and then centrifuged at 3,000 rpm for 10 minutes. Calibration standards were prepared in matched matrix. […] Analytical conditions are outlined in Appendix 8-1.
as §2, with “10-1.” for “8-1.”
Studies were carried out in simulated intestinal fluid in the presence of various enzymes. Simulated intestinal fluid was prepared by dissolving 6.8 g of monobasic potassium phosphate in 1.0 L of water. Aliquots of this solution were taken and the pH was adjusted to 6.8. Individual enzymes were then spiked into aliquots for each experiment. A DMSO stock was first prepared for test article. Aliquots of the DMSO solution were dosed into 700 μL of matrix, which had been pre-warmed to 37° C., at a final test article concentration of 1 μM. […] Samples were stored at 4° C. until the end of experiment. After final time point was sampled, the plate was mixed and then centrifuged at 3,000 rpm for 10 minutes. Calibration standards were prepared in matched matrix. […] Analytical conditions are outlined in Appendix 13-1.
as §2, with “17-1.” for “8-1.”

[5] = SIF + Carboxypeptidase A, 0 min
[6] = SIF + Carboxypeptidase A, 15 min
[7] = SIF + Carboxypeptidase A, 30 min
[8] = SIF + Carboxypeptidase A, 60 min
[9] = SIF + Carboxypeptidase A, 120 min
[10] = SIF + Carboxypeptidase B, 0 min
[11] = SIF + Carboxypeptidase B, 15 min
[12] = SIF + Carboxypeptidase B, 30 min
[13] = SIF + Carboxypeptidase B, 60 min
[14] = SIF + Carboxypeptidase B, 120 min
[15] = simulated intestinal fluid with carboxypeptidase A, pH 6.8, SIF + Carboxypeptidase A, read-out: Half-life
[16] = simulated intestinal fluid with carboxypeptidase B, pH 6.8, SIF + Carboxypeptidase B, read-out: Half-life
[17] = simulated intestinal fluid with chymotrypsin, pH 6.8, SIF + Chymotrypsin, read-out: Half-life
[18] = simulated intestinal fluid with elastase, pH 6.8, SIF + Elastase, read-out: Half-life
[19] = simulated intestinal fluid with trypsin, pH 6.8, SIF + Trypsin, read-out: Half-life

## CCCCCCCCCCCCCCCC(=O)NCCOC(=O)CCC(=O)OC(CO)CO [Compound I-8]
[1]; 0 min
  % Remaining of Initial (n = 1): 100%
  Measured Concentration of Drug: 0.94 µM
[1]; 15 min
  % Remaining of Initial (n = 1): 17%
  Measured Concentration of Drug: 0.16 µM
[1]; 30 min
  % Remaining of Initial (n = 1): 6.8%
  Measured Concentration of Drug: 0.064 µM
[1]; 60 min
  % Remaining of Initial (n = 1): <1.3%
  Measured Concentration of Drug: 0 µM
[1]; 120 min
  % Remaining of Initial (n = 1): <1.3%
  Measured Concentration of Drug: 0 µM
[1]; simulated intestinal fluid with pancreatin, pH 6.8, 1 μM (Example 14)
  half-life at 1 μM: 6.2 min
[2]
  half-life: 6.2 min
[3]
  Bioavailability: 17.3%
  Dose-normalized AUC∞ of PEA: 11.2 kg·ng·h/mL/mg
[4]; [5]
  % Remaining of Initial: 100%
[4]; [6]
  % Remaining of Initial: 33%
[4]; [7]
  % Remaining of Initial: 8.7%
[4]; [8]
  % Remaining of Initial: <1.0%
[4]; [9]
  % Remaining of Initial: <1.0%
[4]; [10]
  % Remaining of Initial: 100%
[4]; [11]
  % Remaining of Initial: 30%
[4]; [12]
  % Remaining of Initial: 7.1%
[4]; [13]
  % Remaining of Initial: <1.0%
[4]; [14]
  % Remaining of Initial: <1.0%
[4]; SIF + Chymotrypsin, 0 min
  % Remaining of Initial: 100%
[4]; SIF + Chymotrypsin, 15 min
  % Remaining of Initial: 36%
[4]; SIF + Chymotrypsin, 30 min
  % Remaining of Initial: 8.7%
[4]; SIF + Chymotrypsin, 60 min
  % Remaining of Initial: <1.0%
[4]; SIF + Chymotrypsin, 120 min
  % Remaining of Initial: <1.0%
[4]; SIF + Elastase, 0 min
  % Remaining of Initial: 100%
[4]; SIF + Elastase, 15 min
  % Remaining of Initial: 38%
[4]; SIF + Elastase, 30 min
  % Remaining of Initial: 17%
[4]; SIF + Elastase, 60 min
  % Remaining of Initial: 16%
[4]; SIF + Elastase, 120 min
  % Remaining of Initial: 17%
[4]; SIF + Trypsin, 0 min
  % Remaining of Initial: 100%
[4]; SIF + Trypsin, 15 min
  % Remaining of Initial: 52%
[4]; SIF + Trypsin, 30 min
  % Remaining of Initial: 31%
[4]; SIF + Trypsin, 60 min
  % Remaining of Initial: 28%
[4]; SIF + Trypsin, 120 min
  % Remaining of Initial: 25%
[4]; [15]
  half-life at 1 μM: < 15 min
[4]; simulated intestinal fluid with carboxypeptidase A, pH 6.8, SIF + Carboxypeptidase A, read-out: Half-life, calculated value in parentheses
  half-life at 1 µM: 9.2 min
[4]; [16]
  half-life at 1 µM: < 15 min
[4]; simulated intestinal fluid with carboxypeptidase B, pH 6.8, SIF + Carboxypeptidase B, read-out: Half-life, calculated value in parentheses
  half-life at 1 µM: 8.5 min
[4]; [17]
  half-life at 1 μM: < 15 min
[4]; simulated intestinal fluid with chymotrypsin, pH 6.8, SIF + Chymotrypsin, read-out: Half-life, calculated value in parentheses
  half-life at 1 μM: 9.6 min
[4]; [18]
  half-life at 1 μM: < 15 min
[4]; simulated intestinal fluid with elastase, pH 6.8, SIF + Elastase, read-out: Half-life, calculated value in parentheses
  half-life at 1 µM: 12 min
[4]; [19]
  half-life at 1 μM: 25 min

## CCCCCCCCCCCCCCCC(=O)NCCOC(=O)CCC(=O)OC(COC(=O)CCC)COC(=O)CCC [Compound I-16]
[1]; 0 min
  % Remaining of Initial (n = 1): 100%
  Measured Concentration of Drug: 0.088 µM
[1]; 15 min
  % Remaining of Initial (n = 1): <4.5%
  Measured Concentration of Drug: 0 µM
[1]; 30 min
  % Remaining of Initial (n = 1): <4.5%
  Measured Concentration of Drug: 0 µM
[1]; 60 min
  % Remaining of Initial (n = 1): <4.5%
  Measured Concentration of Drug: 0 µM
[1]; 120 min
  % Remaining of Initial (n = 1): <4.5%
  Measured Concentration of Drug: 0 µM
[2]
  half-life: < 1 min
[3]
  Bioavailability: 12.1%
[4]; [5]
  % Remaining of Initial: 100%
[4]; [6]
  % Remaining of Initial: 88%
[4]; [7]
  % Remaining of Initial: 74%
[4]; [8]
  % Remaining of Initial: 60%
[4]; [9]
  % Remaining of Initial: 32%
[4]; [10]
  % Remaining of Initial: 100%
[4]; [11]
  % Remaining of Initial: 94%
[4]; [12]
  % Remaining of Initial: 87%
[4]; [13]
  % Remaining of Initial: 68%
[4]; [14]
  % Remaining of Initial: 37%
[4]; SIF + Chymotrypsin, 0 min
  % Remaining of Initial: 100%
[4]; SIF + Chymotrypsin, 15 min
  % Remaining of Initial: 103%
[4]; SIF + Chymotrypsin, 30 min
  % Remaining of Initial: 90%
[4]; SIF + Chymotrypsin, 60 min
  % Remaining of Initial: 68%
[4]; SIF + Chymotrypsin, 120 min
  % Remaining of Initial: 35%
[4]; SIF + Elastase, 0 min
  % Remaining of Initial: 100%
[4]; SIF + Elastase, 15 min
  % Remaining of Initial: 72%
[4]; SIF + Elastase, 30 min
  % Remaining of Initial: 50%
[4]; SIF + Elastase, 60 min
  % Remaining of Initial: 27%
[4]; SIF + Elastase, 120 min
  % Remaining of Initial: 7.1%
[4]; SIF + Trypsin, 0 min
  % Remaining of Initial: 100%
[4]; SIF + Trypsin, 15 min
  % Remaining of Initial: 89%
[4]; SIF + Trypsin, 30 min
  % Remaining of Initial: 82%
[4]; SIF + Trypsin, 60 min
  % Remaining of Initial: 62%
[4]; SIF + Trypsin, 120 min
  % Remaining of Initial: 37%
[4]; [15]
  half-life at 1 μM: 75 min
[4]; [16]
  half-life at 1 µM: 89 min
[4]; [17]
  half-life at 1 μM: 84 min
[4]; [18]
  half-life at 1 μM: 31 min
[4]; [19]
  half-life at 1 μM: 85 min
